Experimental data reported in ChEMBL document CHEMBL1147078, “Triptolide is a traditional Chinese medicine-derived inhibitor of polycystic kidney disease” (Proc Natl Acad Sci U S A, 2007).
The source made the active and inactive calls. The calls are words filed in the database; no cut-off is given here.

Experiments:
[1] = Growth inhibition of mouse Pkd2-/- PC2-null cells assessed as cell death at 100 nM after 48 hrs; assay type: functional; parameters: scale not given: the % may be the effect or the level left
Mus musculus [2] = species on record: Mus musculus; assay: Increase in p21CIP/WAF expression in mouse Pkd1-/- cells at 100 nM after 96 hrs by Western blot analysis; assay type: functional, cell-based
Mus musculus [3] = assay: Toxicity in C57BL/6 mouse embryos at >=0.1 mg/kg/day, ip; assay type: organism-based; details: in vivo
Mus musculus [4] = species on record: Mus musculus; assay: Growth inhibition of PC2 expressing mouse Pkd2+/- cells as cell death at 100 nM after 24 hrs; assay type: functional
Mus musculus [5] = species on record: Mus musculus; assay: Increase in calcium release in mouse Pkd2-/- cells at 100 nM; assay type: functional, cell-based
Mus musculus [6] = species on record: Mus musculus; assay: Increase in PC2 dependent calcium release in mouse Pkd1+/- cells at 100 nM; assay type: functional, cell-based
Mus musculus [7] = assay: Effect on Pkd1+/- and Pkd1+/- inter crossed mouse assessed as decrease in kidney cyst burden in […] genotypic embryos at 0.07 mg/kg, ip from E10.5 stage to untill birth relative to control; assay type: functional, organism-based; parameters: dose 0.07 mg/kg
Mus musculus [8] = species on record: Mus musculus; assay: Increase in PC2 dependent calcium release in mouse Pkd1-/- cells at 100 nM; assay type: functional, cell-based
Mus musculus [9] = assay: Toxicity in C57BL/6 mouse embryos at […], ip; assay type: organism-based; parameters: route intraperitoneal; details: in vivo
[10] = Growth inhibition of mouse Pkd2-/- PC2-null cells assessed as cell viability at 100 nM after 24 hrs; assay type: functional; details: read-out: Activity
Pkd = assay: Increase in calcium response in mouse Pkd cells at […]; assay type: functional, cell-based
[11] = Growth inhibition of PC2 reconstituted mouse Pkd2-/- cells assessed as cell death at 100 nM after 24 hrs; assay type: functional; parameters: scale not given: the % may be the effect or the level left
Mus musculus [12] = species on record: Mus musculus; assay: Increase in calcium release in mouse Pkd1-/- cells at 50 uM in presence of RyR antagonist dantrolene; assay type: functional, cell-based
Mus musculus [13] = species on record: Mus musculus; assay: Induction of cell growth arrest in mouse Pkd1-/- cells in presence of calcium; assay type: functional, cell-based

CC(C)[C@]12O[C@H]1[C@@H]1O[C@]13[C@]1(O[C@H]1C[C@H]1C4=C(CC[C@@]13C)C(=O)OC4)[C@@H]2O [TRIPTOLIDE]
Activity [1]: >50% | Activity (Mus musculus [2]): Active | Activity (Mus musculus [3]): Toxic | Activity (Mus musculus [4]): Active | Activity (Mus musculus [5]): inactive | Activity (Mus musculus [6]): Active | Activity (Mus musculus [7]): Active | Activity (Mus musculus [8]): Active | Activity (Mus musculus [9]): Non-toxic | viability at 0.1 µM [10]: > 90% | Activity (Pkd): inactive | Activity [11]: >80% | Activity (Mus musculus [12]): Active | Activity (Mus musculus [13]): Active
